{"source": "patent US20230302022A1", "about": "“PREVENTING OR MITIGATING CHEMOTHERAPY INDUCED ALOPECIA USING VITAMIN D” (priority 2016, published 2023)", "key": {"Long Evans rats": {"system": "Long Evans rats", "assay": "CIA in chloroleukemic Long Evans rats receiving multi-course chemotherapy", "format": "in vivo, rat", "design": "protection from CIA: concentration or dose not given beside the values", "details": "for protection from CIA: both cycles"}, "[1]": {"system": "MIAC51 (chloroleukemia cells)", "assay": "Chloroleukemia (MIAC51) in rats: cure / survival under chemotherapy with topical calcitriol", "format": "in vivo, rat", "description": "For experiments in which rats were transplanted with chloroleukemia, on Day 5 after birth, rats were randomly divided into three groups of 45 each. All rats received 1×10^5 chloroleukemic cell line MIAC51 (i.p.) in 0.1 mL of serum free (SF) RPMI. MIAC51 were cultured in RPMI 1640 supplemented with L-glutamine and 10% fetal bovine serum at 37° C. in a 5% CO2, 100% humidity incubator. Cells were grown to 50% confluency (1.5×106 mL) collected in 50 mL conical tubes, centrifuged at 600 g×10 min. at room temperature and resuspended in SF-RPMI at a concentration of 1×10^6/mL. Group 1 rats received no further treatment. Group 2 rats received topical vehicle and CTX on day 13. […] Topical applications were performed as described above.\nOn day 23 after birth, a sample of blood was taken from all rats and differentials performed. Rats with leukemia were sacrificed, rats without leukemia were kept and a second differential performed on day 31, at any point if leukemia was detected, animals were sacrificed by CO2 asphyxiation.\nOn day 5 after birth all rats received 1×105 MIAC51 intraperitoneally in 0.1 mL of serum free (SF) RPMI. MIAC51 were cultured in RPMI 1640 supplemented with L-glutamine and 10% fetal bovine serum at […] in a 5% CO2, 100% humidity incubator. Cells were grown to 50% confluency (1.5×106 mL) collected in 50 mL conical tubes, centrifuged at 600 g for 10 minutes at room temperature and resuspended in SF-RPMI at a concentration of 1×10^6/mL prior to injection.\n[…]"}, "patients": {"system": "patients", "assay": "Phase I study: chemotherapy-induced alopecia in patients", "format": "in vivo, human", "details": "patients at all dose levels, weeks 7 and 15 vs baseline", "excerpt": "Photographic assessment will be performed using a Canon Power Shot G12 camera system to ensure standardization and uniformity among all enrolled patients. The following five views will be obtained at each photographic assessment: bilateral sides of head/scalp view, front of head/face view, back of head/scalp view, and top of head/scalp view. Additionally, close-up photographs will be taken at the same times points. […] Photographs will be standardized for lighting, camera angle, and position to the participants head. These assessments will be performed at the following time points: at baseline, weeks 7, 15, 27, and 54. Photographs for patients in each cohort representing baseline, and treatment weeks 7 and 15 will be presented blind to the study principle investigator after at least 3 patients have completed 15 weeks of treatment. Photographs will also be taken at week 27 and week 54 of the study but will be included in the final photographic assessment as secondary information. […]\nSubjective record of hair and scalp. Alopecia will also be subjectively recorded through the patient self-reported diaries. […]\nEach patient underwent PK analysis, adverse event monitoring, patient self-assessment diaries (1-10 scale), and blinded photographic assessments. […] Toxicity was determined on a weekly basis during Cycle 1 (i.e., the first 28 days of topical agent application) and subsequently every four weeks. […]"}}, "note": "“Also recorded” adds a separate entry of the source.", "data": [{"compound": "C=C1/C(=C\\C=C2/CCC[C@]3(C)[C@@H]([C@H](C)CCCC(C)(C)O)CC[C@@H]23)C[C@@H](O)C[C@@H]1O", "note": "[Calcitriol, (5Z,7E)-9,10-secocholesta-5,7.10(19Hriene-1 a,33.25-triol]", "values": [{"measurement": "ALOPECIA 0 (number of rats)", "setting": "Long Evans rats; ADM, Paclitaxel and Etoposide, after First Round", "value": 40}, {"measurement": "ALOPECIA 0 (number of rats)", "setting": "Long Evans rats; ADM, Paclitaxel and Etoposide, after Second Round", "value": 32}, {"measurement": "ALOPECIA 0 (number of rats)", "setting": "Long Evans rats; CTX and Doxorubicin (ADM), after First Round", "value": 40}, {"measurement": "ALOPECIA 0 (number of rats)", "setting": "Long Evans rats; CTX and Doxorubicin (ADM), after Second Round", "value": 20}, {"measurement": "ALOPECIA 0 (number of rats)", "setting": "Long Evans rats; CTX, ADM and Cytarabine (ARA-C), after First Round", "value": 40}, {"measurement": "ALOPECIA 0 (number of rats)", "setting": "Long Evans rats; CTX, ADM and Cytarabine (ARA-C), after Second Round", "value": 31}, {"measurement": "ALOPECIA 0 (number of rats)", "setting": "Long Evans rats; CTX, Paclitaxel and Etoposide, after First Round", "value": 40}, {"measurement": "ALOPECIA 0 (number of rats)", "setting": "Long Evans rats; CTX, Paclitaxel and Etoposide, after Second Round", "value": 33}, {"measurement": "ALOPECIA 0 (number of rats)", "setting": "Long Evans rats; Cyclophosphamide (CTX), after First Round of Chemotherapy", "value": 40}, {"measurement": "ALOPECIA 0 (number of rats)", "setting": "Long Evans rats; Cyclophosphamide (CTX), after Second Round of Chemotherapy", "value": 10}, {"measurement": "protection from CIA", "setting": "Long Evans rats; cyclophosphamide and doxorubicin group", "value": 100, "unit": "%"}, {"measurement": "extent of alopecia (grade), all rats", "setting": "Long Evans rats; cyclophosphamide and doxorubicin regimen, after the first round", "value": "did not exhibit any signs of alopecia"}, {"measurement": "protection from CIA", "setting": "Long Evans rats; cyclophosphamide group", "value": 100, "unit": "%"}, {"measurement": "extent of alopecia (grade), all rats", "setting": "Long Evans rats; cyclophosphamide regimen, after the first round of chemotherapy", "value": "did not exhibit any signs of alopecia"}, {"measurement": "protection from CIA", "setting": "Long Evans rats; cyclophosphamide, doxorubicin and cytarabine group", "value": 100, "unit": "%"}, {"measurement": "extent of alopecia (grade), all rats", "setting": "Long Evans rats; cyclophosphamide, doxorubicin and cytarabine regimen, after the first round", "value": "did not exhibit any signs of alopecia"}, {"measurement": "protection from CIA", "setting": "Long Evans rats; cyclophosphamide, paclitaxel and etoposide group", "value": 100, "unit": "%"}, {"measurement": "extent of alopecia (grade), all rats", "setting": "Long Evans rats; cyclophosphamide, paclitaxel and etoposide regimen, after the first round", "value": "did not exhibit any signs of alopecia"}, {"measurement": "protection from CIA", "setting": "Long Evans rats; doxorubicin, paclitaxel and etoposide group", "value": 100, "unit": "%"}, {"measurement": "extent of alopecia (grade), all rats", "setting": "Long Evans rats; doxorubicin, paclitaxel and etoposide regimen, after the first round", "value": "did not exhibit any signs of alopecia"}, {"measurement": "Survival Rate, %", "setting": "[1]; ADM, Paclitaxel and Etoposide, after Two Rounds", "value": 80, "unit": "%"}, {"measurement": "Survival Rate, %", "setting": "[1]; CTX and ADM, after Two Rounds", "value": 50, "unit": "%"}, {"measurement": "Survival Rate, %", "setting": "[1]; CTX, ADM and ARA-C, after Two Rounds", "value": 78, "unit": "%"}, {"measurement": "Survival Rate, %", "setting": "[1]; CTX, Paclitaxel and Etoposide, after Two Rounds", "value": 83, "unit": "%"}, {"measurement": "Survival Rate, %", "setting": "[1]; CTX, after Two Rounds of Chemotherapy", "value": 25, "unit": "%"}, {"measurement": "protection of the cancer cells from chemotherapy (cyclophosphamide)", "setting": "[1]; Long Evans rats injected with MIAC51, topical calcitriol", "value": "does not protect the cancer cells from chemotherapy; also recorded: have not shown protection; also recorded: not protecting the cancer cells"}, {"measurement": "effect on the cure rate associated with cyclophosphamide", "setting": "[1]; chloroleukemia induced (MIAC51), calcitriol 1-3 μg/mL study", "value": "did not affect the cure rate"}, {"measurement": "interference with the cure rate", "setting": "[1]; cyclophosphamide and doxorubicin group, cure rate 50-55%", "value": "did not interfere with the cure rate"}, {"measurement": "interference with the cure rate", "setting": "[1]; cyclophosphamide group, cure rate 20-25%", "value": "did not interfere with the cure rate"}, {"measurement": "interference with the cure rate", "setting": "[1]; cyclophosphamide, doxorubicin and cytarabine group, cure rate 75-80%", "value": "did not interfere with the cure rate"}, {"measurement": "interference with the cure rate", "setting": "[1]; cyclophosphamide, paclitaxel and etoposide group, cure rate 78-83%", "value": "did not interfere with the cure rate"}, {"measurement": "interference with the cure rate", "setting": "[1]; doxorubicin, paclitaxel and etoposide group, cure rate 80-83%", "value": "did not interfere with the cure rate"}, {"measurement": "effect on the efficacy of the chemotherapy agents", "setting": "[1]; number of animals free from leukemia", "value": "did not affect the efficacy of the chemotherapy agents"}, {"measurement": "chemotherapy induced alopecia", "setting": "patients", "value": "diminished chemotherapy induced alopecia"}]}]}
